Measured values published in patent US20230086706A1, “Compounds for promoting follicle maturation” (Aarhus Universitet, priority 2020, published 2023).

Tests used:
[1] = tested on: ID8 Mouse Ovarian Surface Epithelial Cell Line; experiment: Toxicity assay (cell morphology by light microscopy); format: cell-based; conditions: 1 μM compound, cells grown for 2 days, morphology checked using light microscopy
Procedure: Immediately, 1 μM compound was added to the media and cells were grown for 2 days and morphology checked using light microscopy.

[2] = tested on: ovaries (primordial, primary and secondary follicles); experiment: Evaluation of follicle numbers after ovary organ culture with compound; format: cell-based, C57BL/6j×CBA F1 hybrid mice; conditions: ovaries of 7-day-old female pups cultured four days; 0.5 μM and 1 μM for 582 and 583, 25 μM for 798 and 798 (so in the source)
Procedure: C57BL/6j×CBA F1 hybrid mice (Janvier Labs, France) were housed and bred in the animal facilities at Department of Biomedicine, Aarhus University. Animals were housed in a 12:12 h controlled light-dark environment and were provided with food and water ad libitum. 7-day-old female pups were used for the study.
Pups were sacrificed and ovaries were excised. Using a stereomicroscope MZ75 (Leica Microsystems, Germany), excess tissue was removed. […] 200-300 μL of culture medium was added to the well below the insert and up to two ovaries were placed on the membrane of each insert. […] Up to six wells in the 24-well plate were used for inserts. […] The ovaries were cultured at 37° C., 5% CO2 for four days. 150 μL of medium was replaced every other day with fresh culture medium.
Ovaries kept in organ culture for four days were fixed for 24 hours in 4% paraformaldehyde solution at 4° C. After fixation, ovaries were dehydrated in ethanol series using 70%, 96% and 99.9% ethanol. Xylene was used as clearing agent before the ovaries were infiltrated in paraffin wax. 5 μm-sections of samples in paraffin were cut using a microtome (Cut 6062, SLEE medical, Germany). […] The samples were then rinsed in dH2O, stained in hematoxylin for 40 sec., rinsed in dH2O for 5 min., and stained in eosin for 46 sec. The samples were dehydrated in ethanol: 2×2 min. in 96% ethanol, 2×2 min in 99.9% ethanol, and finally cleared up in xylene for at least 30 min before mounting the samples using Eukitt mounting medium (Sigma-Aldrich) and cover glass. […] The follicles of every 3rd to 4th section of each ovary were counted and the distribution of follicles in the different stages in percentage was determined.

C[n+]1cccc(C(N)=O)c1 [Compound 583, 3-carbamoyl-1-methylpyridin-1-ium]
toxicity to the grown cells / alteration of the morphology of the cells [1]: not to alter the morphology of the cells nor to be toxic to the grown cells
overall appearance and size of the ovaries in culture (visual inspection of ovarian sections) [2]: healthy and the size was normal, no shrinkage was observed

NC(=O)c1ccc[n+](C2CCOCC2)c1 [Compound 798, 3-carbamoyl-1-(tetrahydro-2H-pyran-4-yl)pyridin-1-ium]
toxicity to the grown cells / alteration of the morphology of the cells [1]: not to alter the morphology of the cells nor to be toxic to the grown cells
overall appearance and size of the ovaries in culture (visual inspection of ovarian sections) [2]: healthy and the size was normal, no shrinkage was observed

NC(=O)c1ccc[n+](Cc2ccccc2)c1 [Compound 582, 1-benzyl-3-carbamoylpyridin-1-ium]
toxicity to the grown cells / alteration of the morphology of the cells [1]: not to alter the morphology of the cells nor to be toxic to the grown cells
overall appearance and size of the ovaries in culture (visual inspection of ovarian sections) [2]: healthy and the size was normal, no shrinkage was observed

CC1=C2C[C@H]3[C@@H](CC=C4C[C@@H](O)CC[C@@]43C)[C@@H]2CC[C@]12O[C@@H]1C[C@H](C)CN[C@H]1[C@H]2C [cyclopamine, Cyclopamine, reference compound]
toxicity to the grown cells / alteration of the morphology of the cells [1]: not to alter the morphology of the cells nor to be toxic to the grown cells
